# Laboratory results published in US9006250B2, “4-amino-6-(heterocyclic)picolinates and 6-amino-2-(heterocyclic)pyrimidine-4-carboxylates and their use as herbicides” (Dow AgroSciences, LLC, priority 2013, dated 2015).
# Tests used:
# Experiment in all cases: Postemergence herbicidal activity in direct seeded rice
# Format in all cases: in vivo
# [1] = test system: CYPES: yellow nutsedge, Cyperus esculentus
# Text: (§1) Seeds or nutlets of the desired test plant species were planted in a soil matrix prepared by mixing a loam soil (43 percent silt, 19 percent clay, and 38 percent sand, with a pH of about 8.1 and an organic matter content of about 1.5 percent) and river sand in an 80 to 20 ratio. The soil matrix was contained in plastic pots with a surface area of 139.7 cm^2. When required to ensure good germination and healthy plants, a fungicide treatment and/or other chemical or physical treatment was applied. The plants were grown for 10-17 d in a greenhouse with an approximate 14-h photoperiod which was maintained at about 29° C. during the day and 26° C. during the night. Nutrients and water were added on a regular basis and supplemental lighting was provided with overhead metal halide 1000-Watt lamps as necessary. The plants were employed for testing when they reached the second or third true leaf stage. A weighed amount, determined by the highest rate to be tested, of each test compound was placed in 25 mL glass vials and dissolved in a volume of 97:3 v/v acetone-DMSO to obtain 12× stock solutions. […] The concentrated stock solutions were added to the spray solutions so that the final acetone and DMSO concentrations were 16.2% and 0.5%, respectively. Spray solutions were diluted to the appropriate final concentrations with the addition of 10 mL of an aqueous mixture of 1.5% (v/v) Agri-dex crop oil concentrate. The final spray solutions contained 1.25% (v/v) Agri-dex crop oil concentrate. Compound requirements are based upon a 12 mL application volume at a rate of 187 L/ha. Formulated compounds were applied to the plant material with an overhead Mandel track sprayer equipped with […] nozzles calibrated to deliver 187 L/ha over an application area of 0.503 square meters (m^2) at a spray height of 18 inches ([…]) above average plant canopy height. Control plants were sprayed in the same manner with the solvent blank. The treated plants and control plants were placed in a greenhouse as described above and watered by sub-irrigation to prevent wash-off of the test compounds. After 20-22 days, the condition of the test plants, compared with that of the untreated plants, was determined visually and scored on a scale of 0 to 100 percent where 0 corresponds to no injury and 100 corresponds to complete kill. By applying the well-accepted probit analysis as described by J. Berkson in […], 48, 565 (1953) and by D. Finney in “Probit Analysis” Cambridge University Press (1952), the above data can be used to calculate GR20, GR50, GR80 and GR90 values, which are defined as growth reduction factors that correspond to the effective dose of herbicide required to kill or control 20 percent, 50 percent, 80 percent or 90 percent, respectively, of a target plant.
# [2] = test system: ECHCG: barnyardgrass, Echinochloa crus-galli
# Text: as §1
# ORYSJ: Oryza sativa = test system: ORYSJ: Oryza sativa
# Text: as §1
# [3] = test system: DIGSA: large crabgrass, Digitaria sanguinalis
# Text: as §1
# ORYSK: Oryza sativa = test system: ORYSK: Oryza sativa
# Text: as §1
# [4] = test system: ECHCO: junglerice, Echinochloa colonum
# Text: as §1
# [5] = test system: SCPJU: Japanese bulrush, Scirpus juncoides
# Text: as §1
# [6] = test system: CYPIR: rice flatsedge, Cyperus iria
# Text: as §1
# [7] = test system: BRAPP: broadleaf signalgrass, Brachiaria platyphylla
# Text: as §1
# [8] = test system: CYPDI: small-flower flatsedge, Cyperus difformis
# Text: as §1
# [9] = test system: SEBEX: hemp sesbania, Sesbania exaltata
# Text: as §1
# [10] = test system: LEFCH: Chinese sprangletop, Leptochloa chinensis
# Text: as §1
# [11] = dose for 50 percent control, probit analysis
# [12] = dose for 80 percent control, probit analysis
# [13] = dose for 90 percent control, probit analysis
# [14] = dose for 20 percent growth reduction, probit analysis
structure (smiles),measurement,setting,value
COC(=O)c1nc(-c2ccc3nsnc3c2)c(F)c(N)c1Cl [Compound 11],Visual Growth Reduction (%) 21 Days After Application CYPES,[1]; 17.5 g ai/ha,D (60-74)
same,Visual Growth Reduction (%) 21 Days After Application CYPES,[1]; 35 g ai/ha,G (0-29)
same,Visual Growth Reduction (%) 21 Days After Application CYPES,[1]; 70 g ai/ha,E (45-59)
same,GR50 CYPES,[1]; [11],>70 g ai/ha
same,GR80 CYPES,[1]; [12],>70 g ai/ha
same,GR90 CYPES,[1]; [13],>70 g ai/ha
same,Visual Growth Reduction (%) 21 Days After Application ECHCG,[2]; 17.5 g ai/ha,E (45-59)
same,Visual Growth Reduction (%) 21 Days After Application ECHCG,[2]; 35 g ai/ha,C (75-84)
same,Visual Growth Reduction (%) 21 Days After Application ECHCG,[2]; 70 g ai/ha,B (85-94)
same,GR50 ECHCG,[2]; [11],6 g ai/ha
same,GR80 ECHCG,[2]; [12],37 g ai/ha
same,GR90 ECHCG,[2]; [13],98 g ai/ha
same,Visual Growth Reduction (%) 21 Days After Application ORYSJ,ORYSJ: Oryza sativa; 17.5 g ai/ha,G (0-29)
same,Visual Growth Reduction (%) 21 Days After Application ORYSJ,ORYSJ: Oryza sativa; 35 g ai/ha,G (0-29)
same,Visual Growth Reduction (%) 21 Days After Application ORYSJ,ORYSJ: Oryza sativa; 70 g ai/ha,G (0-29)
same,GR20 ORYSJ,ORYSJ: Oryza sativa; [14],>70 g ai/ha
same,Visual Growth Reduction (%) 21 Days After Application DIGSA,[3]; 17.5 g ai/ha,E (45-59)
same,Visual Growth Reduction (%) 21 Days After Application DIGSA,[3]; 35 g ai/ha,E (45-59)
same,Visual Growth Reduction (%) 21 Days After Application DIGSA,[3]; 70 g ai/ha,D (60-74)
same,GR50 DIGSA,[3]; [11],11 g ai/ha
same,GR80 DIGSA,[3]; [12],628 g ai/ha
same,GR90 DIGSA,[3]; [13],5310 g ai/ha
same,Visual Growth Reduction (%) 21 Days After Application ORYSK,ORYSK: Oryza sativa; 17.5 g ai/ha,G (0-29)
same,Visual Growth Reduction (%) 21 Days After Application ORYSK,ORYSK: Oryza sativa; 35 g ai/ha,G (0-29)
same,Visual Growth Reduction (%) 21 Days After Application ORYSK,ORYSK: Oryza sativa; 70 g ai/ha,G (0-29)
same,GR20 ORYSK,ORYSK: Oryza sativa; [14],>70 g ai/ha
same,Visual Growth Reduction (%) 21 Days After Application ECHCO,[4]; 17.5 g ai/ha,E (45-59)
same,Visual Growth Reduction (%) 21 Days After Application ECHCO,[4]; 35 g ai/ha,D (60-74)
same,Visual Growth Reduction (%) 21 Days After Application ECHCO,[4]; 70 g ai/ha,C (75-84)
same,GR50 ECHCO,[4]; [11],15 g ai/ha
same,GR80 ECHCO,[4]; [12],107 g ai/ha
same,GR90 ECHCO,[4]; [13],300 g ai/ha
same,Visual Growth Reduction (%) 21 Days After Application SCPJU,[5]; 17.5 g ai/ha,A (95-100)
same,Visual Growth Reduction (%) 21 Days After Application SCPJU,[5]; 35 g ai/ha,A (95-100)
same,Visual Growth Reduction (%) 21 Days After Application SCPJU,[5]; 70 g ai/ha,A (95-100)
same,GR50 SCPJU,[5]; [11],4 g ai/ha
same,GR80 SCPJU,[5]; [12],9 g ai/ha
same,GR90 SCPJU,[5]; [13],14 g ai/ha
same,Visual Growth Reduction (%) 21 Days After Application CYPIR,[6]; 17.5 g ai/ha,G (0-29)
same,Visual Growth Reduction (%) 21 Days After Application CYPIR,[6]; 35 g ai/ha,E (45-59)
same,Visual Growth Reduction (%) 21 Days After Application CYPIR,[6]; 70 g ai/ha,F (30-44)
same,GR50 CYPIR,[6]; [11],78 g ai/ha
same,GR80 CYPIR,[6]; [12],212 g ai/ha
same,GR90 CYPIR,[6]; [13],357 g ai/ha
same,Visual Growth Reduction (%) 21 Days After Application BRAPP,[7]; 17.5 g ai/ha,G (0-29)
same,Visual Growth Reduction (%) 21 Days After Application BRAPP,[7]; 35 g ai/ha,G (0-29)
same,Visual Growth Reduction (%) 21 Days After Application BRAPP,[7]; 70 g ai/ha,E (45-59)
same,GR50 BRAPP,[7]; [11],>70 g ai/ha
same,GR80 BRAPP,[7]; [12],>70 g ai/ha
same,GR90 BRAPP,[7]; [13],>70 g ai/ha
same,Visual Growth Reduction (%) 21 Days After Application CYPDI,[8]; 17.5 g ai/ha,A (95-100)
same,Visual Growth Reduction (%) 21 Days After Application CYPDI,[8]; 35 g ai/ha,A (95-100)
same,Visual Growth Reduction (%) 21 Days After Application CYPDI,[8]; 70 g ai/ha,A (95-100)
same,GR50 CYPDI,[8]; [11],6 g ai/ha
same,GR80 CYPDI,[8]; [12],11 g ai/ha
same,GR90 CYPDI,[8]; [13],16 g ai/ha
same,Visual Growth Reduction (%) 21 Days After Application SEBEX,[9]; 17.5 g ai/ha,C (75-84)
same,Visual Growth Reduction (%) 21 Days After Application SEBEX,[9]; 35 g ai/ha,A (95-100)
same,Visual Growth Reduction (%) 21 Days After Application SEBEX,[9]; 70 g ai/ha,A (95-100)
same,GR50 SEBEX,[9]; [11],4 g ai/ha
same,GR80 SEBEX,[9]; [12],11 g ai/ha
same,GR90 SEBEX,[9]; [13],19 g ai/ha
same,Visual Growth Reduction (%) 21 Days After Application LEFCH,[10]; 17.5 g ai/ha,G (0-29)
same,Visual Growth Reduction (%) 21 Days After Application LEFCH,[10]; 35 g ai/ha,G (0-29)
same,Visual Growth Reduction (%) 21 Days After Application LEFCH,[10]; 70 g ai/ha,G (0-29)
same,GR50 LEFCH,[10]; [11],114 g ai/ha
same,GR80 LEFCH,[10]; [12],186 g ai/ha
same,GR90 LEFCH,[10]; [13],239 g ai/ha
